{"source": "patent US4407810A", "about": "“Thiazol-2-yl-oxamic acid derivatives, and therapeutic agents containing these compounds” (BASF Aktiengesellschaft, priority 1980, dated 1983)", "key": {"[1]": {"experiment": "acute toxicity (LD 50), mice, intraperitoneal", "conditions": "mouse, in vivo, ip, NMRI mice, 14 days post-observation", "protocol": "(§1) In addition to the anti-allergic action, the acute toxicity was determined for intraperitoneal administration, using groups of 2 NMRI mice, each weighing 20-26 g, and for oral administration, using groups of 2 Sprague-Dawley rats, each weighing 120-150 g. The LD 50 was determined on groups of 10 NMRI mice, each weighing 20-26 g, after intraperitoneal administration. The post-observation period was 14 days."}, "[2]": {"experiment": "acute toxicity, rats, oral", "conditions": "rat, in vivo, Sprague-Dawley rats, 14 days post-observation, read-out: LD 50, rats oral", "protocol": "as §1"}, "[3]": {"system": "passive cutaneous anaphylaxis (PCA)", "experiment": "anti-allergic action, passive cutaneous anaphylaxis (PCA) model in rats", "assay_type": "in vivo", "conditions": "for R.A. (relative activity) / times more active than Comparative Compound V1: PCA in rats; for R.A. (relative activity): relative to V1 (=1); for ED50: Rattus norvegicus, dose which reduces diameter of color patch by 50% vs non-medicated controls, read-out: Inhibition of PCA in rats (oral), ED 50%; for times more active than Comparative Compound V1: after oral administration", "protocol": "The anti-allergic action was tested on rats, using the passive cutaneous anaphylaxis (PCA) model.\nNarcotized male rats (100-140 g) are sensitized by intradermal injection (into the shaved dorsal skin) of 0.1 ml of an ovalbumin antiserum. After a sensitization period of about 48 hours, the treatment (intraperitoneal or oral administration) is carried out with various dosages (10 animals/dose)of the test substances. 15-20 minutes after treatment, an antigen/Evans blue mixture (10 mg/kg of ovalbumin in 2% strength Evans blue solution) is intravenously injected into the test animals. 30 minutes later, the animals are sacrificed, the dorsal skin is removed and the diameter of the circular blue coloration is measured on the inner surface. The size of the color patches of untreated control animals can be standardized. Anti-allergic substances reduce the diameter of the color patch by an amount dependent on the dose. The ED 50% is quoted as the dose which reduces the diameter of the color patch by 50% relative to that of non-medicated control animals."}}, "data": [{"compound": "COCCOCCOC(=O)C(=O)Nc1nc(-c2ccccc2)cs1", "note": "[Example 11, 2-(ω-Methoxyethyleneoxy)-ethyl N-(4-phenyl-thiazol-2-yl)-oxamate]", "values": [{"measurement": "LD50 at 336 h", "setting": "[1]", "result": 705, "unit": "mg/kg"}, {"measurement": "LD50 at 336 h", "setting": "[2]", "result": "> 2150", "unit": "mg/kg"}, {"measurement": "R.A. (relative activity)", "setting": "[3]; oral", "result": 4.01}, {"measurement": "ED50", "setting": "[3]; rats, oral", "result": 2.16, "unit": "mg/kg"}]}, {"compound": "CCOC(=O)C(=O)Nc1nc(-c2ccccc2)cs1", "note": "[Example V1, ethyl N-(4-phenyl-thiazol-2-yl)-oxamate, reference compound]", "values": [{"measurement": "LD50 at 336 h", "setting": "[1]", "result": "~681", "unit": "mg/kg"}, {"measurement": "LD50 at 336 h", "setting": "[2]", "result": "> 2150", "unit": "mg/kg"}, {"measurement": "R.A. (relative activity)", "setting": "[3]; oral", "result": 1}, {"measurement": "ED50", "setting": "[3]; rats, oral", "result": 8.67, "unit": "mg/kg"}]}, {"compound": "CCOCCOC(=O)C(=O)Nc1nc(-c2ccccc2)cs1", "note": "[Example 9, 2-Ethoxyethyl N-(4-phenyl-thiazol-2-yl)-oxamate]", "values": [{"measurement": "LD50 at 336 h", "setting": "[1]", "result": 956, "unit": "mg/kg"}, {"measurement": "LD50 at 336 h", "setting": "[2]", "result": "> 2150", "unit": "mg/kg"}, {"measurement": "times more active than Comparative Compound V1", "setting": "[3]", "result": 227, "unit": "times"}, {"measurement": "R.A. (relative activity)", "setting": "[3]; oral", "result": 227}, {"measurement": "ED50", "setting": "[3]; rats, oral", "result": 0.0382, "unit": "mg/kg"}]}, {"compound": "CCOCCOC(=O)C(=O)Nc1nc(-c2ccc(OC)cc2)cs1", "note": "[Example 14, 2-Ethoxyethyl N-[4-(4-methoxyphenyl)-thiazol-2-yl]-oxamate]", "values": [{"measurement": "LD50 at 336 h", "setting": "[1]", "result": "~1000", "unit": "mg/kg"}, {"measurement": "R.A. (relative activity)", "setting": "[3]; oral", "result": 14.0}, {"measurement": "ED50", "setting": "[3]; rats, oral", "result": 0.619, "unit": "mg/kg"}]}, {"compound": "O=C(O)c1cc(=O)c2c(OCC(O)COc3cccc4oc(C(=O)O)cc(=O)c34)cccc2o1", "note": "[Cromolyne, reference compound]", "values": [{"measurement": "LD50 at 336 h", "setting": "[2]", "result": "> 2150", "unit": "mg/kg"}, {"measurement": "ED50", "setting": "[3]; rats, oral", "result": 100, "unit": "mg/kg"}, {"measurement": "activity in PCA (in words)", "setting": "[3]; rats, oral, up to 100 mg/kg", "result": "inactive"}]}, {"compound": "COCCOC(=O)C(=O)Nc1nc(-c2ccccc2)cs1", "note": "[Example 7, 2-Methoxyethyl N-(4-phenyl-thiazol-2-yl)-oxamate]", "values": [{"measurement": "LD50 at 336 h", "setting": "[1]", "result": 655, "unit": "mg/kg"}, {"measurement": "LD50 at 336 h", "setting": "[2]", "result": "> 2150", "unit": "mg/kg"}, {"measurement": "times more active than Comparative Compound V1", "setting": "[3]", "result": 3.87, "unit": "times"}, {"measurement": "R.A. (relative activity)", "setting": "[3]; oral", "result": 3.87}, {"measurement": "ED50", "setting": "[3]; rats, oral", "result": 2.24, "unit": "mg/kg"}]}]}
